These results are taken from US20110059947A1, “ALPHA 7 NICOTINIC AGONISTS AND ANTIPSYCHOTICS” (Targacept, Inc., priority 2008, published 2011).

The subject of one assay is db/db mice. Briefly: Plasma glucose and body weight in obese db/db mice. Format: in vivo. To be noted: 1 mg/kg.
The subject of assay [1] is th(tk-)/th(tk-) mice. Briefly: Prepulse inhibition (PPI) and acoustic startle in th(tk-)/th(tk-) and control mice. Format: in vivo.
Assay [2] deals with th(tk-)/th(tk-) mice. The experiment in a line: Social behavior, nonsocial autogrooming and open field activity. Format: in vivo. Particulars: 1 mg/kg i.p. The method, then: B. […] On testing days, each subject received three tests: a social behavior test with a female, a social behavior test with a male, and an open-field test. There was a 30-minute interval between each test. Social behavior was tested using a variant of the resident-intruder paradigm, in which a stimulus animal was introduced into the subject's homecage for three minutes. Prior to testing the subjects' home cages were not changed for at least four days to allow them to establish the cage as their territory. Female stimulus animals were singly-housed, randomly cycling C57BI/6Js (Jackson Laboratories, Bar Harbor, Me.). Each subject was tested with a different stimulus animal and each stimulus animal was used only once per testing day. Male stimulus animals were singly-housed C57BI/6Js (Jackson Laboratories, Bar Harbor, Me.). Each subject was tested with a different stimulus animal and each stimulus animal was used only once per testing day. A stimulus female was placed into the cage of wild-type (n=8) and tk-/- (n=8) subjects. After three minutes, the stimulus female was removed. Thirty minutes later a stimulus male was placed into the subject's homecage. […] The behavior of the subject was quantified from the videotape using the Observer Mobile (Noldus Information Technologies, Sterling, Va.). […] Movement was analyzed in detail using the Clever Sys. […]

The subject of another assay is Sprague-Dawley rats. Briefly: Apomorphine-induced impairment of pre-pulse inhibition. Format: in vivo, rat. Particulars: haloperidol 0.3 mg/kg i.p., apomorphine 1.0 mg/kg s.c., p<0.001.
The mark [3] stands for this setting: db/db mice with fat diet, vs vehicle-treated mice.

Consider `Cc1ccc(C(=O)N[C@@H]2C3CCN(CC3)[C@H]2Cc2cccnc2)s1` [Compound B, (2S,3R)—N-(2-((3-pyridinyl)methyl)-1-azabicyclo[2.2.2]oct-3-yl)-5-methylthiophene-2-carboxamide], for which, in the assay with db/db mice (setting [3]), the blood glucose levels result is given as “significantly decreases” and the body weight gain result is “significantly decreases”. Moreover, the “time at which effects on glucose and weight gain become apparent” value in the assay with db/db mice (db/db mice, weeks of treatment) turned out to be 6 weeks. Also, the “sensory gating (PPI and acoustic startle response)” value in the assay with th(tk-)/th(tk-) mice [1] (control (normal) mice, Compound B) is given as “no effect on control”. In addition, in the assay on th(tk-)/th(tk-) mice [1] (th(tk-)/th(tk-) mice, Compound B (0.1 and 1.0 mg/kg analyzed)), the “deficits in sensory gating (PPI and acoustic startle response)” value was “reverse deficits in sensory gating”.
`COc1cccc([C@H](O)C2CCN(CCc3ccc(F)cc3)CC2)c1OC` [Compound M100907]: the “time spent investigating the stimulus animal” value in the assay with th(tk-)/th(tk-) mice [2] (TK- mice) is given as “significantly increased”. Also, the “investigation time of stimulus animal” value with th(tk-)/th(tk-) mice [2] (wild-type animals) is “no effect on investigation time”. Further, the PPI entry is recorded as “no effect at any dose” with th(tk-)/th(tk-) mice [1] (control mice, M100907 any dose); “increases of PPI” with th(tk-)/th(tk-) mice [1] (transgenic mice, M100907 middle (0.1 mg/kg) and high (1 mg/kg) doses vs vehicle). In addition, the startle response result in the assay on th(tk-)/th(tk-) mice [1] (control mice, M100907 any dose) was “no effect at any dose”; in the assay on th(tk-)/th(tk-) mice [1] (treated transgenic groups vs vehicle, M100907), “significant decrease of startle response”.
Consider `CN1CCN(C2=Nc3cc(Cl)ccc3Nc3ccccc32)CC1` [clozapine], for which, in the assay with th(tk-)/th(tk-) mice [1] (clozapine 3 mg/kg), the PPI entry was “no effect” and the startle response entry is recorded as “no effect”.
For `OCCN1CCN(CC/C=C2/c3ccccc3Sc3ccc(C(F)(F)F)cc32)CC1` [flupenthixol], the startle response entry is on record as “decreased” in the assay with th(tk-)/th(tk-) mice [1] (control mice, flupenthixol 1.0 mg/kg vs saline) and “decreased” with th(tk-)/th(tk-) mice [1] (th(tk-)/th(tk-) mice, flupenthixol 1.0 mg/kg vs saline). The PPI result with th(tk-)/th(tk-) mice [1] (control mice, flupenthixol 0.25, 0.5, 1.0 mg/kg) is on record as “no effect of dose”; with th(tk-)/th(tk-) mice [1] (th(tk-)/th(tk-) mice, flupenthixol 0.25, 0.5, 1.0 mg/kg, all three stimulus intensities, P<0.01), “increased PPI”.
Regarding `O=C(CCCN1CCC(O)(c2ccc(Cl)cc2)CC1)c1ccc(F)cc1` [haloperidol, reference compound], the “PPI deficits induced by apomorphine” value in the assay on Sprague-Dawley rats is given as “significantly reversed”.
As for `OCCOCCN1CCN(C2=Nc3ccccc3Sc3ccccc32)CC1` [quetiapine], the startle response result in the assay on th(tk-)/th(tk-) mice [1] (control mice, quetiapine any dose) is “no main effect”; in the assay on th(tk-)/th(tk-) mice [1] (transgenic mice, all doses of quetiapine vs saline, p<0.05) it was “significant decrease in startle response”. Further, the PPI entry in the assay on th(tk-)/th(tk-) mice [1] (control mice, quetiapine any dose examined) is on record as “no significant main effect”; with th(tk-)/th(tk-) mice [1] (th(tk-)/th(tk-) mice, quetiapine 7.0 mg/kg, p<0.001), “normalized the reduced PPI”; in the assay with th(tk-)/th(tk-) mice [1] (th(tk-)/th(tk-) mice, quetiapine lower doses (below 7.0 mg/kg)), “no effect”. In the assay with th(tk-)/th(tk-) mice [1] (transgenic th(tk-)/th(tk-) mice, quetiapine 3.0 mg/kg alone), the “PPI, main effect” value is “no significant main effect”.
